From PubChem BioAssay (NCI)
Several values for one entry are separate records, joined by “and”; a condition that tells them apart may be missing. Equal entries are not always repeated.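 Dose response: 5 concentrations. Exposure: 48 h. Format: 96-well plates. Endpoint: linear interpolation; highest concentration if not reached. GI50: concentration for 50% inhibition of growth. TGI: concentration producing complete growth inhibition.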

How the values were obtained:
Assay in all cases: NCI anticancer screen, dose series, 48 h
[1] = system: RPMI-8226 leukemia
[2] = system: HOP-92 NSCLC
[3] = system: NCI-H522 lung
[4] = system: LOX IMVI melanoma
[5] = system: SK-OV-3 ovarian
[6] = system: SF-268 CNS
[7] = system: UACC-257 melanoma
[8] = system: DU-145 prostate
[9] = system: HS 578T breast
[10] = system: M14 melanoma

Structure (SMILES) | TGI [1] [µM] | TGI [2] [µM] | TGI [3] [µM] | TGI [4] | TGI [5] [µM] | TGI [6] [µM] | TGI [7] | TGI [8] | TGI [9] [µM] | TGI [10] [µM] | GI50 [4] [µM] | GI50 [7] [µM] | GI50 [2] [µM] | GI50 [8] [µM] | GI50 [9] [µM] | GI50 [10] [µM] | GI50 [6] [µM] | GI50 [1] [µM] | GI50 [3] [µM] | GI50 [5] [µM]
Cc1c2c(cc3c1[nH]c1ccccc13)C(c1ccc(F)cc1)=NCC2 | 2.54 | 7.27 | 3.85 | 3.02 µM | 4.45 | 19.6 | 2.46 µM | – | – | – | – | – | – | – | – | – | – | – | – | –
O=C1c2ccccc2-c2ccc(O)cc21 | > 100 | – | 32.9 | 97.5 µM | – | 47.2 | 49.1 µM | 49.1 µM | > 100 | 72.7 | – | – | – | – | – | – | – | – | – | –
C[N+]1(C)C2CCC1CC(OC(=O)C(CO)c1ccccc1)C2 (centres undefined) | > 100 | – | > 100 | > 100 µM | > 100 | > 100 | > 100 µM | > 100 µM | > 100 | > 100 | – | – | – | – | – | – | – | – | – | –
CCC(C)C(NC(=O)C(CCCCN)NC(=O)C(NC(=O)C(CCC(N)=O)NC(=O)C(CCCNC(=N)N)NC(C)=O)C(C)CC)C(=O)NC(Cc1c[nH]c2ccccc12)C(=O)NC(Cc1ccccc1)C(=O)NC(CCC(N)=O)C(=O)NC(CC(N)=O)C(=O)NC(CCCNC(=N)N)C(=O)NC(CCCNC(=N)N)C(=O)NC(CCSC)C(=O)NC(CCCCN)C(=O)NC(Cc1c[nH]c2ccccc12)C(=O)NC(CCCCN)C(=O)NC(CCCCN)C(N)=O (centres undefined) | > 50 | > 50 | > 50 | > 50 µM | > 50 | > 50 | > 50 µM | > 50 µM | > 50 | > 50 | – | – | – | – | – | – | – | – | – | –
Cc1c(N)nc([C@H](CC(N)=O)NC[C@H](N)C(N)=O)nc1C(=O)N[C@H](C(=O)N[C@H](C)[C@@H](O)[C@H](C)C(=O)N[C@H](C(=O)NCCc1nc(-c2nc(C(=O)NCCC[S+](C)C)cs2)cs1)[C@@H](C)O)C(OC1OC(CO)C(O)C(O)C1OC1OC(CO)C(O)C(OC(N)=O)C1O)c1cnc[nH]1 (some centres undefined) | – | – | – | 5.32 µM and 1.89 µM and 1.51 µM | – | – | 24.6 µM and > 100 µM | 20.2 µM and 5.4 µM and 30 µM | – | – | 0.0661 | 27.5 | – | – | – | – | – | – | – | –
N#CCc1[nH]nc2nc(SCc3ccccc3)nc(N3CCCCC3)c12 | 43.2 | 31.6 | 37.9 | 43 µM | 45.7 | 36.7 | 35.7 µM | 33.6 µM | 39.2 | 34.8 | – | – | – | – | – | – | – | – | – | –
O=C1CS(=O)(=O)C(c2cccc(Oc3ccccc3)c2)N1c1cccc(Cl)c1Cl (centres undefined) | – | 41.6 | 39.4 | 47.7 µM | > 100 | 55.2 | 51.2 µM | > 100 µM | 90 | > 100 | – | – | – | – | – | – | – | – | – | –
S=C(NCCCCCCNC(=S)Nc1c2ccccc2nc2ccccc12)Nc1c2ccccc2nc2ccccc12 | > 100 | > 100 | > 100 | > 100 µM | > 100 | > 100 | > 100 µM | – | – | – | – | – | – | – | – | – | – | – | – | –
CCn1cc(C(=O)O)c(=O)c2cc(F)c(N3CCN(Cn4c(O)c(N=NC(=O)c5ccncc5)c5cc(Cl)ccc54)CC3)cc21 | – | > 100 | 63.6 | > 100 µM | 61.3 | > 100 | > 100 µM | > 100 µM | > 100 | > 100 | – | – | – | – | – | – | – | – | – | –
CN1CCN(CCCOc2ccc3ncnc(Nc4ccc(Oc5cccc(C(F)(F)F)c5)c(Cl)c4)c3c2)CC1 | – | 3.9 | – | 2.81 µM | – | 3.12 | 3.75 µM | 3.49 µM | 4.22 | 3.87 | 1.3 | 1.82 | 1.33 | 1.66 | 1.67 | 1.87 | 1.44 | – | – | –
O=c1c2c([nH]c3nccn13)CCCC2 | > 10 | – | > 10 | > 10 µM | > 10 | > 10 | – | > 10 µM | > 10 | > 10 | – | – | – | – | – | – | – | – | – | –
COC1CCC(OS(C)(=O)=O)CO1 (centres undefined) | 98.2 | > 100 | > 100 | – | > 100 | > 100 | > 100 µM | – | – | > 100 | – | – | – | – | – | – | – | – | – | –
OC(c1ccc(-c2ccccc2)cc1)(c1ccc(-c2ccccc2)cc1)c1ccc(-c2ccccc2)cc1 | > 100 | – | > 100 | > 100 µM | > 100 | > 100 | > 100 µM | > 100 µM | > 100 | > 100 | – | – | – | – | – | – | – | – | – | –
C=C1C(C2(C)C=CC(=O)OC3(C)COC(=O)CC32)C(OC=O)C(OC(=O)C(O)C(C)CC)C2(C)C(c3ccoc3)CC(OC(C)=O)C12O (centres undefined) | > 100 | > 100 | > 100 | 88.2 µM | > 100 | > 100 | > 100 µM | > 100 µM | > 100 | > 100 | – | – | – | – | – | – | – | – | – | –
C=CCOCCCC(=O)C(=[N+]=[N-])C(=O)OC | > 100 | > 100 | > 100 | > 100 µM | > 100 | > 100 | > 100 µM | > 100 µM | – | > 100 | – | – | – | – | – | – | – | – | – | –
O=C1c2scnc2-c2nccc3c2c1nc1ccccc13 | > 100 | 4.85 | > 100 | 0.508 µM | 23.4 | > 100 | 1.69 µM | 3.14 µM | > 100 | – | – | – | – | – | – | – | – | – | – | –

Structure (SMILES) | TGI [1] [µM] | TGI [2] [µM] | TGI [3] [µM] | TGI [4] | TGI [5] [µM] | TGI [6] [µM] | TGI [7] | TGI [8] | TGI [9] [µM] | TGI [10] [µM] | GI50 [4] [µM] | GI50 [7] [µM] | GI50 [2] [µM] | GI50 [8] [µM] | GI50 [9] [µM] | GI50 [10] [µM] | GI50 [6] [µM] | GI50 [1] [µM] | GI50 [3] [µM] | GI50 [5] [µM]
CO[C@@]12C[C@@H](CNC(=O)c3cc(Br)c[nH]3)O[C@@H]1NC(=O)N2 | > 100 | – | > 100 | > 100 µM | > 100 | > 100 | > 100 µM | > 100 µM | > 100 | > 100 | – | – | – | – | – | – | – | – | – | –
COc1ccc(/C=c2/[nH]c(=O)/c(=C\c3ccc(OCc4ccccc4)cn3)[nH]c2=O)cc1 | – | 80 | > 100 | > 100 µM | > 100 | > 100 | > 100 µM | > 100 µM | > 100 | > 100 | – | – | – | – | – | – | – | – | – | –
CN(C)CCNc1c([N+](=O)[O-])cc2c3c(cccc13)C(=O)N(CCN(C)C)C2=O | 11.6 | 2.36 | 2.79 | 4.01 µM | 7.51 | 4.6 | 4.71 µM | – | – | – | – | – | – | – | – | – | – | – | – | –
O=C(O)C(Cc1ccccc1)N1C(=O)c2ccccc2C1=O (centres undefined) | > 100 | > 100 | > 100 | > 100 µM | > 100 | > 100 | > 100 µM | > 100 µM | > 100 | > 100 | – | – | – | – | – | – | – | – | – | –
CC(=O)OCCC[C@@H]1C(=C(C)C)CCC2[C@@]1(C)CC[C@@]1(C)C[C@](C)(CCC=C(C)C)CC[C@]21C (some centres undefined) | > 100 | – | > 100 | – | > 100 | > 100 | > 100 µM | > 100 µM | > 100 | > 100 | – | – | – | – | – | – | – | – | – | –
CCN(CC)/C(=C\Cl)Nc1ccccn1 | > 100 | > 100 | > 100 | > 100 µM | > 100 | > 100 | > 100 µM | – | – | > 100 | – | – | – | – | – | – | – | – | – | –
OC1C=C2C3CN(Cc4cc5c(cc43)OCO5)[C@H]2C[C@@H]1O (some centres undefined) | > 100 | 46.9 | > 100 | > 100 µM | > 100 | > 100 | 9.29 µM | 71.2 µM | > 100 | 25 | – | – | – | – | – | – | – | – | – | –
O=C1CC(N2C(=O)/C(=C/C(Cl)=C\c3ccc([N+](=O)[O-])cc3)SC2=S)C(=O)N1c1ccc(Cl)cc1 (centres undefined) | 0.979 | 6.79 | 4.36 | – | > 100 | > 100 | 66.5 µM | – | > 100 | 5.06 | – | 2.92 | 2.58 | – | 1.8 | 2.11 | 3.07 | 0.303 | 1.73 | 3.56
O=C1CCC(NC(=O)Cc2ccc(O)cc2)C(=O)N1 (centres undefined) | – | > 2500 | > 2500 | > 2500 µM | > 2500 | > 2500 | > 2500 µM | – | – | > 2500 | – | – | – | – | – | – | – | – | – | –
O=C(NN1C(=O)/C(=C/c2ccc(Cl)cc2)N=C1c1ccccc1)c1c(Cl)c(Cl)c(Cl)c(Cl)c1-c1nc2ccccc2[nH]1 | – | 37.3 | 83.4 | 62.8 µM | > 100 | 62.5 | – | 61.9 µM | 95.3 | 68.8 | – | – | – | – | – | – | – | – | – | –
CC(=O)C1(c2ccccc2)CCCN(C)CC1 (centres undefined) | > 100 | > 100 | – | > 100 µM | > 100 | – | > 100 µM | > 100 µM | > 100 | > 100 | – | – | – | – | – | – | – | – | – | –
COc1ccc(OC)c2sc(N3C(=O)/C(=C/c4ccccc4S)N=C3c3ccccc3)nc12 | 58.4 | > 100 | – | 60.4 µM | > 100 | > 100 | > 100 µM | > 100 µM | > 100 | > 100 | – | – | – | – | – | – | – | – | – | –
O=C1CC(n2cccc2)c2cc(Br)sc21 (centres undefined) | 69.9 | > 100 | 75.5 | > 100 µM | > 100 | > 100 | > 100 µM | > 100 µM | > 100 | > 100 | – | – | – | – | – | – | – | – | – | –
CC(=O)C1=C(O)C2(O)C(=O)c3c(c(C)c4ccc(C)c(O)c4c3O)CC2C(N)C1=O (centres undefined) | 12.8 | 6.2 | > 29.5 | 11.4 µM | 12.6 | 13.6 | 11.9 µM | 14.7 µM | 9.48 | 23.1 | – | – | – | 2.41 | 1.99 | – | – | – | – | –
Cc1nc(Cl)c(C)c(Cl)n1 | > 100 | – | – | > 100 µM | > 100 | > 100 | > 100 µM | > 100 µM | > 100 | > 100 | – | – | – | – | – | – | – | – | – | –
